Assay results published in publication PMC10350917 (Journal of Medicinal Chemistry, 2023).

How the values were obtained:
ADC-7 = ADC-7 (Acinetobacter baumannii, UniProt Q6DRA1); experiment: Inhibition kinetics (competition with nitrocefin), ADC-7; format: biochemical; conditions: 100 μM nitrocefin, 3 min pre-incubation, Cheng–Prusoff corrected
Experimental: (§1) For inhibition kinetics, utilizing nitrocefin (NCF) as a colorimetric substrate, the inhibition constant (Ki) of MB076 and S02030 BATSI with ADCs was determined using competition kinetics as previously described.[10],[25],[28],[34] The measurements of the initial velocities were performed with the addition of 100 μM NCF after a 3 min pre-incubation of the enzyme (2 nM) with increasing concentration of the inhibitor. […] The Ki value was corrected for the NCF affinity (KM values for each ADC variant listed in Table 1) with the Cheng–Prusoff[35] equation: [drawing 2]

ADC-30 = ADC-30 (Acinetobacter baumannii, UniProt A7XM81); experiment: Inhibition kinetics (competition with nitrocefin), ADC-30; format: biochemical; conditions: 100 μM nitrocefin, 3 min pre-incubation
Experimental: as §1

ADC-162 = ADC-162 (Acinetobacter baumannii, UniProt A0A2H4PPJ8); experiment: Inhibition kinetics (competition with nitrocefin), ADC-162; format: biochemical
Experimental: as §1

ADC-33 [1] = biological target: T1, ADC-33 (Acinetobacter baumannii, UniProt A7Y407); experiment: Inhibition kinetics (competition with nitrocefin), ADC-33; format: biochemical; conditions: 100 μM nitrocefin, 3 min pre-incubation
Experimental: as §1

ADC variants = experiment: Inhibition kinetics, statement for all ADC variants; format: biochemical, Acinetobacter baumannii; conditions: bound stated for all ADC variants of the study
Experimental: as §1

[2] = tested on: ADC-212 in pBCSK(−) E. coli DH10B; experiment: Broth microdilution AST, ADC-212; format: cell-based
Experimental: (§2) Susceptibility testing to standard antibiotics was performed by broth microdilution or agar dilution using an Oxoid replicator according to 2021 Clinical and Laboratory Standards Institute (CLSI) guidelines. MICs for CAZ, CTX, FEP, and TOL were determined using cation-adjusted Mueller Hinton MH broth, and MICs for FDC were done in iron-depleted cation-adjusted MH broth according to CLSI methods. MB076, S02030, and VAB were used at a fixed concentration of 10 mg/L. All MICs were interpreted according to the 2021 CLSI guidelines.[43]
(§3) blaADC-7 pBCSK- was cloned and expressed in E. coli DH10B cells as previously described.[44] All other blaADC variants were synthesized by GenScript according to the blaADC-7 pBCSK- strategy, cloning into the XbaI/BamHI sites of the pBCSK- vector.

[3] = tested on: ADC-33 in pBCSK(−) E. coli DH10B; experiment: Agar dilution AST, ADC-33; format: cell-based
Experimental: as §2, §3

in vitro = conditions: human, plasma, pH 7.4
Experimental: (§4) The in vitro stability of MB076 and S02030 was evaluated by incubating the compounds in both buffer (pH 7.4) and human plasma at 37 °C over 48 h. Half-lives (t1/2) were then calculated for each compound.
(§5) Plasma and buffer stability samples were analyzed by monitoring the disappearance of the compounds using high-performance liquid chromatography-mass spectrometry (LC–MS) techniques.
Half-lives (t1/2) were calculated in Origin using a one-phase decay model with t1/2 = ln(2)/b, where b is the slope of a linear plot of natural logarithm (ln) of the remaining compound concentration (C) versus incubation time. Each condition was tested in triplicate.

physchem = conditions: buffer, pH 7.4
Experimental: as §4, §5
Standard solutions were prepared by adding the compound in DMSO (2.5 μM) to 0.1 M phosphate buffer pH 7.4 and MeOH. Solutions were vortexed, filtered, and analyzed by LC–MS (At=0). Samples were then prepared by adding a solution of the compound in DMSO (2.5 μM) to phosphate buffer pH 7.4 and incubating at 37 °C. At suitable time intervals, the reaction was stopped by the addition of MeOH. The solutions were vortexed and filtered. Degradation time courses were followed by LC–MS enabling the quantitation of compounds. Half-lives (t1/2) were calculated in Origin using a one-phase decay model with t1/2 = ln(2)/b, where b is the slope of a linear plot of natural logarithm (ln) of the remaining compound concentration (C) versus incubation time. Each condition was tested in triplicate.

ADC-33 [4] = biological target: T1, ADC-33; conditions: ADC-33; substrate
Experimental: Steady-state kinetic parameters were determined by combining pure enzyme with antibiotic substrates in 50 mM NaH2PO4, pH 7.4 at room temperature. Changes in absorbance were measured on a Cary 60 UV–Vis spectrophotometer (Agilent Technologies) and converted to velocity using the change in extinction coefficient specific to nitrocefin (ε482 = 17,400 M^–1·cm^–1), cephalothin (ε262 = 7660 M^–1·cm^–1), ceftazidime (ε260 = 8660 M^–1·cm^–1), cefotaxime (ε260 = 7500 M^–1·cm^–1), cefepime (ε260 = 750 M^–1·cm^–1), cefiderocol (ε259 = 9430 M^–1·cm^–1), and ceftolozane (ε254 = 6810 M^–1·cm^–1). Initial velocities were fit to the Michaelis–Menten equation yielding kcat and KM values. For ADC/substrate combinations in which the KM was too large to accurately determine both kcat and KM values, the initial velocities at kcat/KM values were calculated from linear fits of vo in low [S] ranges (<0.08 × KM).

[5] = tested on: ADC-7 in pBCSK(−) E. coli DH10B; experiment: Broth microdilution AST, ADC-7; format: cell-based; conditions: Escherichia coli, E. coli DH10B ADC-7, MB076 fixed at 10 mg/L in combinations, FDC in iron-depleted broth
Experimental: as §2, §3

[6] = tested on: ADC-30 in pBCSK(−) E. coli DH10B; experiment: Broth microdilution AST, ADC-30; format: cell-based; conditions: Escherichia coli, E. coli DH10B ADC-30, MB076 fixed at 10 mg/L in combinations, FDC in iron-depleted broth
Experimental: as §2, §3

[7] = tested on: ADC-33 in pBCSK(−) E. coli DH10B; experiment: Broth microdilution AST, ADC-33; format: cell-based; conditions: Escherichia coli, E. coli DH10B ADC-33, MB076 fixed at 10 mg/L in combinations, FDC in iron-depleted broth
Experimental: as §2, §3

[8] = tested on: ADC-219 in pBCSK(−) E. coli DH10B; experiment: Broth microdilution AST, ADC-219; format: cell-based; conditions: Escherichia coli, E. coli DH10B ADC-219, MB076 fixed at 10 mg/L in combinations, FDC in iron-depleted broth
Experimental: as §2, §3

[9] = tested on: ADC-7 in pBCSK(−) E. coli DH10B; experiment: Agar dilution AST, ADC-7; format: cell-based; conditions: Escherichia coli, E. coli DH10B ADC-7, MB076, S02030, VAB fixed at 10 mg/L
Experimental: as §2, §3

[10] = tested on: ADC-30 in pBCSK(−) E. coli DH10B; experiment: Agar dilution AST, ADC-30; format: cell-based; conditions: Escherichia coli, E. coli DH10B ADC-30, MB076, S02030, VAB fixed at 10 mg/L
Experimental: as §2, §3

[11] = tested on: ADC-162 in pBCSK(−) E. coli DH10B; experiment: Agar dilution AST, ADC-162; format: cell-based; conditions: Escherichia coli
Experimental: as §2, §3

[12] = tested on: ADC-212 in pBCSK(−) E. coli DH10B; experiment: Agar dilution AST, ADC-212; format: cell-based; conditions: Escherichia coli, E. coli DH10B ADC-212, MB076, S02030, VAB fixed at 10 mg/L
Experimental: as §2, §3

[13] = tested on: ADC-219 in pBCSK(−) E. coli DH10B; experiment: Agar dilution AST, ADC-219; format: cell-based; conditions: Escherichia coli, E. coli DH10B ADC-219, MB076, S02030, VAB fixed at 10 mg/L
Experimental: as §2, §3

Nc1nnc(SCC(=O)N[C@@H](Cn2cc(C(=O)O)nn2)B(O)O)s1 [MB076, (R)-1-(2-(2-((5-Amino-1,3,4-thiadiazol-2-yl)thio)acetamido)-2-boronoethyl)-1H-1,2,3-triazole-4-carboxylic Acid]
Ki (ADC-7): 210 ± 16 nM
Ki (ADC-30): 58 ± 5 nM
Ki (ADC-162): 790 ± 39 nM
Ki (ADC-33 [1]): 100 ± 4 nM
Ki (ADC variants): < 1000 nM
reduction of the CTX MIC by MB076 ([2]; ADC-212, MB076 10 mg/L): 3 fold doubling dilution
increase of susceptibility to CAZ relative to S02030 ([3]; ADC-33 variant, inhibitors 10 mg/L): 3 fold
half-life at 2.5 μM (in vitro): 29 h
half-life (physchem): 33 h

CC(C)(O/N=C(\C(=O)N[C@@H]1C(=O)N2C(C(=O)[O-])=C(C[n+]3ccccc3)CS[C@H]12)c1csc(N)n1)C(=O)O [ceftazidime]
kcat (ADC-33 [4]): 3.71 s^–1
MIC [5]: 64 µg/mL
MIC [6]: 128 µg/mL
MIC [7]: 2050 µg/mL
MIC ([2]; Escherichia coli, E. coli DH10B ADC-212, MB076 fixed at 10 mg/L in combinations, FDC in iron-depleted broth): 512 µg/mL
MIC [8]: 256 µg/mL
MIC [9]: 64 µg/mL
MIC [10]: 64 µg/mL
MIC ([3]; Escherichia coli, E. coli DH10B ADC-33, MB076, S02030, VAB fixed at 10 mg/L): 1020 µg/mL
MIC [11]: 128 µg/mL
MIC [12]: 256 µg/mL
MIC [13]: 64 µg/mL
